# Like-named read-outs stand apart in the source and are kept apart here.
# Tests used:
# [1] = system: cynomolgus monkeys; settings: cited from earlier work
# [2] = system: murine progenitor cells; settings: cited from earlier work
# [3] = system: human tumor xenografts; settings: broad range of in vivo tumor models, including human tumor xenografts in nude mice; cited from earlier work
# [4] = system: cancer patients; experiment: phase I clinical trial, 3 hours iv infusion weekly for 3 consecutive weeks every 4 weeks; assay type: in vivo, human
# Description: A phase I clinical trial was carried out with the following protocol:
# Dose schedule: ET-743 will be administered every week as a 3hours iv infusion for 3 consecutive weeks every 4 weeks.
# Starting dose and dose escalation: The starting dose will be 300 μg/m^2 weekly of ET-743 given as a intravenous infusion over 3 hours for 3 consecutive weeks every 4 weeks. Patients will be sequentially enrolled into the following dose cohorts beginning at dose Level 1. A minimum cohort size of 3 patients will be treated at each of the dose levels.
# Accrual at the next higher dose level: At least 1 patient at each dose level must have completed 1 cycle of therapy and two patients must have completed treatment on day 15 before a new patient can be treated at the next highest dose. Conditions for retreatment: Patients are eligible for retreatment […] intolerable toxicity, the patient desires further treatment, and fulfill the eligibility criteria. Dose Limiting Toxicities (DLTs)
# Dose limiting toxicities (DLT) will be defined as follows: • ANC <500/μL for longer than 5 days. • ANC <500/μL accompanied by fever (at least 100.5° F.). • Platelets <25,000/μL. • Any grade 3-4 nonhematological toxicity except nausea/vomiting (provided the patient is receiving an optimal antiemetic regimen consisting of dexamethasone and a serotonin antagonist on an optimal dose-schedule for prophylaxis and management), alopecia. Grade 3 or 4 elevation in trasaminases that result in either omission of 2 scheduled treatments within a cycle or delay in the initiation of a subsequent course exceeding 2 weeks. • Missing at least 2 scheduled treatments during a single course due to drug-induced toxicity (missed doses will not be made up). • Delay in the initiation of a subsequent course of treatment exceeding 2 weeks. Determination of the Maximum Tolerated Dose (MTD)
# Cohort of 3 patients will be treated at each dose level. If no DLT is seen during the first cycle in the cohort of patients at any given dose level, new patients may be treated at the next higher level.
# If any patient encounters drug-induced DLT during either cycle 1 or 2, a maximum of 6 patients may be treated at that level. If DLT is not observed in the additional patients, new patients may be treated at the next higher dose level.
# If at least 2 patients experience DLT at any given dose level, this dose level will be considered the Maximum Tolerated Dose (MTD). However, it is possible that additional patients may experience DLT due to the timing of patient enrollment into that dose level.
# Once an MTD level is established, subsequent patients should be treated at the next lower dose level. Intermediate doses may be used in some instances and flexibility is an integral part of the protocol. If two or more patients experience DLT at the lower dose level, then the MTD has again been established and additional patients will be treated at the next lower dose (unless sufficient numbers of patients have already been treated at that dose level).
# The RD is defined as the highest dose level at which less than 2 of 6 patients experience DLT during cycles 1 or 2. At the RD, sufficient numbers of patients will be accrued so at least 6 patients receive at least 2 cycles of therapy, and at least 4 patients receive at least 4 courses of treatment.
# This trial was launched in May 00 and last patient was included in March 02. 31 patients were treated.
# Tumours included: Sarcomas (19), UOT (1), Lung (1), Ovary (4), Breast (2), Uterus (1), Melanoma (2), Colorectal (1)
# [5] = system: soft tissue sarcoma cell lines; settings: several soft tissue sarcoma cell lines; cited from earlier work
# [6] = 3 hour weekly ×3/4 weeks infusion, per patient, number (%)
substance,measurement,setting,value
ecteinascidin 743 [ET-743],toxicity,[1]; fractionated dosing,only minor toxicity
same,toxicity,[1]; single doses,"hepatic and hematological toxicity, emesis and diarrhoea"
same,sensitivity of progenitor cells,[2],equal sensitivity of erythropoid and myeloid cells
same,antitumor activity in vivo,[3],Potent antitumor activity
same,G3 transaminases,[4]; 29 patients evaluated,10%
same,ALT G2(%),[4]; [6],9(31) %
same,ALT G3(%),[4]; [6],3(10.3) %
same,ALT G4(%),[4]; [6],0%
same,Alk Phos G2(%),[4]; [6],1(3.4) %
same,Alk Phos G3(%),[4]; [6],2(6.9) %
same,Alk Phos G4(%),[4]; [6],0%
same,Bilirubin G2(%),[4]; [6],0%
same,Bilirubin G3(%),[4]; [6],1(3.4) %
same,Bilirubin G4(%),[4]; [6],0%
same,Creatine Kinase G2(%),[4]; [6],1(3.4) %
same,Creatine Kinase G3(%),[4]; [6],0%
same,Creatine Kinase G4(%),[4]; [6],1(3.4) %
same,Creatinine G2(%),[4]; [6],1(3.4) %
same,Creatinine G3(%),[4]; [6],0%
same,Creatinine G4(%),[4]; [6],0%
same,Hemoglobin G2(%),[4]; [6],9(31) %
same,Hemoglobin G3(%),[4]; [6],1(3.4) %
same,Hemoglobin G4(%),[4]; [6],0%
same,Neutrophils G2(%),[4]; [6],1(3.4) %
same,Neutrophils G3(%),[4]; [6],2(6.9) %
same,Neutrophils G4(%),[4]; [6],1(3.4) %
same,Platelets G2(%),[4]; [6],1(3.4) %
same,Platelets G3(%),[4]; [6],0%
same,Platelets G4(%),[4]; [6],0%
same,Grade 3-4 ALT,[4]; Weekly schedule,10.3%
same,Grade 3-4 Bilirubin,[4]; Weekly schedule,3.4%
same,Grade 3-4 Creatinine,[4]; Weekly schedule,0%
same,Grade 3-4 Creatinine Kinase,[4]; Weekly schedule,3.4%
same,Grade 3-4 Hemoglobin,[4]; Weekly schedule,3.4%
same,Grade 3-4 Neutrophils,[4]; Weekly schedule,10.3%
same,Grade 3-4 Platelets,[4]; Weekly schedule,0%
same,Serious renal toxicity (G3-4),[4]; Weekly schedule,has not been seen
same,DLT defining the MTD,[4]; at the 4th level (650),"Long lasting grade 3 neutropenia, and g3 Bilirubin toxicity"
same,long lasting stabilizations,[4]; ovarian cancer,2
same,minor responses,[4]; patients with sarcoma,2
same,grade 3-4 neutropenia,"[4]; per patient, 29 patients evaluated",10.3%
same,long lasting stabilizations,[4]; sarcoma,2
same,reduction of the most frequent toxicities,[4]; weekly schedule vs previous schedules,more than 3 times
same,MTD,"[4]; weekly×3/4 weeks, 3 hour infusion",650 mcg/sm
same,recommended dose,"[4]; ×3 every 4 weeks, 3 hour infusion",580 mcg/sm
same,IC50,[5],< 1 pM
